# Source: ChEMBL document CHEMBL5260802, “Discovery of Novel Allosteric HCV NS5B Inhibitors. 2. Lactam-Containing Thiophene Carboxylates” (ACS Med Chem Lett, 2017)
# How the values were obtained:
# [1] = Clearance in Sinclair Lab dog at 1 mg/kg,iv and measured after 72 hrs by LC/MS/MS analysis; format: ADME, organism-based, Canis lupus familiaris; conditions: in vivo
# [2] = Unbound clearance in Sprague-Dawley rat at 1 mg/kg,iv and measured after 72 hrs by LC/MS/MS analysis; format: ADME, organism-based; conditions: in vivo
# [3] = Microsomal stability in rat liver microsomes assessed as parent compound remaining at 1 uM and measured after 30 mins in presence of NADPH by LC/MS/MS analysis; format: ADME, Microsome; conditions: 0.5 h
# [4] = Clearance in Sprague-Dawley rat at 1 mg/kg,iv and measured after 72 hrs by LC/MS/MS analysis; format: ADME, organism-based; conditions: in vivo
# [5] = AUC (0 to infinity) in Sprague-Dawley rat at 3 mg/kg,po and measured after 72 hrs by LC/MS/MS analysis; format: ADME, organism-based; set-up: time 72 hrs, dose 3 mg/kg, route po; conditions: in vivo
# [6] = Unbound clearance in Cynomolgus monkey at 1 mg/kg,iv and measured after 72 hrs by LC/MS/MS analysis; format: ADME, organism-based, Macaca fascicularis; conditions: in vivo
# [7] = Unbound AUC (0 to infinity) in Cynomolgus monkey at 1 mg/kg,iv and measured after 72 hrs by LC/MS/MS analysis; format: ADME, organism-based, Macaca fascicularis; conditions: in vivo
# Hepatitis C virus [8] = assay: Antiviral activity against Hepatitis C virus subtype 1b infected in Huh-7 cells transfected with HCV subgenomic replicon for NS5B polymerase assessed as inhibition of viral replication measured upto 96 hrs by luciferase reporter gene assay; format: functional, organism-based, Hepacivirus hominis
# [9] = AUC (0 to infinity) in Sprague-Dawley rat at 1 mg/kg,iv and measured after 72 hrs by LC/MS/MS analysis; format: ADME, organism-based; set-up: time 72 hrs, dose 1 mg/kg, route iv; conditions: Sprague-Dawley, in vivo
# [10] = Drug uptake in human hepatocytes at 37 degree C for 15 mins by LC/MS/MS analysis; format: ADME, cell-based, Hepatocyte; conditions: 0.25 h
# [11] = Unbound clearance in Sinclair Lab dog at 1 mg/kg,iv and measured after 72 hrs by LC/MS/MS analysis; format: ADME, organism-based, Canis lupus familiaris; conditions: in vivo
# [12] = Half life in Sprague-Dawley rat at 3 mg/kg,po and measured after 72 hrs by LC/MS/MS analysis; format: ADME, organism-based; conditions: in vivo
# [13] = Clearance in Cynomolgus monkey at 1 mg/kg,iv and measured after 72 hrs by LC/MS/MS analysis; format: ADME, organism-based, Macaca fascicularis; conditions: in vivo
# [14] = AUC (0 to infinity) in Sinclair Lab dog at 1 mg/kg,iv and measured after 72 hrs by LC/MS/MS analysis; format: ADME, organism-based, Canis lupus familiaris; set-up: time 72 hrs, dose 1 mg/kg, route iv; conditions: in vivo
# [15] = Drug distribution in Sprague-Dawley rat plasma at 10 mg/kg,po and measured upto 24 hrs by LC/MS/MS analysis; format: ADME, organism-based; conditions: in vivo
# [16] = Cmax in Sprague-Dawley rat at 3 mg/kg,po and measured after 72 hrs by LC/MS/MS analysis; format: ADME, organism-based; set-up: time 72 hrs, dose 3 mg/kg, route po; conditions: in vivo
# [17] = Drug uptake in human hepatocytes at 4 degree C for 15 mins by LC/MS/MS analysis; format: ADME, cell-based, Hepatocyte; conditions: 0.25 h
# [18] = Oral bioavailability in Sprague-Dawley rat at 3 mg/kg and measured after 72 hrs by LC/MS/MS analysis; format: ADME, organism-based; conditions: in vivo
# [19] = target: T1, Nuclear receptor subfamily 1 group I member 2 (Homo sapiens, UniProt O75469); assay: Activation of human PXR expressed in human DPX2 co-expressing luciferase reporter gene incubated for 24 hrs by luciferase assay; format: cell-based
# T1 sequence (O75469 whole entry): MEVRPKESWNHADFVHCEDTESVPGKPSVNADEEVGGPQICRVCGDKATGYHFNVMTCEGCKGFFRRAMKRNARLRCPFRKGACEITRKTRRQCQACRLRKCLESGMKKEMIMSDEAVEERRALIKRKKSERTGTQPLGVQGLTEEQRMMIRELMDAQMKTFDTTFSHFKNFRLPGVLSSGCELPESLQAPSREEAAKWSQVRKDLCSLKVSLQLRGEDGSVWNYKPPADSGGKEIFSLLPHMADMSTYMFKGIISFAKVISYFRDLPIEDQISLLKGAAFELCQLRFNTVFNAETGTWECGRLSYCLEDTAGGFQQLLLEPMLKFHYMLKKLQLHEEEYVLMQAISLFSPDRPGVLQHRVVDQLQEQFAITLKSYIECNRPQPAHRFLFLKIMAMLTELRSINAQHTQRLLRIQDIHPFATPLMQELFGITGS
# [20] = Unbound AUC (0 to infinity) in Sinclair Lab dog at 1 mg/kg,iv and measured after 72 hrs by LC/MS/MS analysis; format: ADME, organism-based, Canis lupus familiaris; conditions: in vivo
# [21] = Half life in Cynomolgus monkey at 1 mg/kg,iv and measured after 72 hrs by LC/MS/MS analysis; format: ADME, organism-based, Macaca fascicularis; conditions: in vivo
# Hepatitis C virus [22] = assay: Antiviral activity against Hepatitis C virus subtype 1b infected in Huh-7 cells transfected with HCV subgenomic replicon for NS5B polymerase assessed as inhibition of viral replication measured upto 96 hrs in presence of 40% of human serum by luciferase reporter gene assay; format: functional, organism-based, Hepacivirus hominis; conditions: Huh-7, 96 h
# [23] = Volume of distribution at steady state in Cynomolgus monkey at 1 mg/kg,iv and measured after 72 hrs by LC/MS/MS analysis; format: ADME, organism-based, Macaca fascicularis; conditions: in vivo, read-out: Vdss
# Cytochrome P450 2D6 = Cytochrome P450 2D6 (Homo sapiens, UniProt P10635); assay: Inhibition of CYP2D6 in human liver microsomes incubated for 10 mins in presence of NADPH by LC/MS/MS analysis; format: ADME, Microsome
# [24] = Unbound AUC (0 to infinity) in Sprague-Dawley rat at 3 mg/kg,po and measured after 72 hrs by LC/MS/MS analysis; format: ADME, organism-based; conditions: in vivo
# [25] = Drug excretion in bile-duct cannulated Sprague-Dawley rat assessed as bile elimination at 15 mg/kg,po and measured after 72 hrs by LC/MS/MS analysis; format: ADME, organism-based; conditions: in vivo
# [26] = Protein binding in rat plasma at 1 uM incubated for 6 hrs by LC-MS/MS based rapid equilibrium dialysis method; format: ADME, cell-free; conditions: read-out: PPB (converted)
# [27] = Microsomal stability in human liver microsomes assessed as parent compound remaining at 1 uM and measured after 30 mins in presence of NADPH by LC/MS/MS analysis; format: ADME, Microsome; conditions: 0.5 h
# [28] = Drug distribution in Sprague-Dawley rat liver at 10 mg/kg,po and measured upto 24 hrs by LC/MS/MS analysis; format: ADME, organism-based; conditions: in vivo
# [29] = Volume of distribution at steady state in Sprague-Dawley rat at 1 mg/kg,iv and measured after 72 hrs by LC/MS/MS analysis; format: ADME, organism-based; conditions: in vivo, read-out: Vdss
# [30] = Half life in Sprague-Dawley rat at 1 mg/kg,iv and measured after 72 hrs by LC/MS/MS analysis; format: ADME, organism-based; conditions: in vivo
# PXR = target: T2, PXR (Homo sapiens, UniProt O75469); assay: Activation of human PXR expressed in human DPX2 co-expressing luciferase reporter gene assessed as maximum efficacy incubated for 24 hrs by luciferase assay relative to control; format: cell-based; conditions: DPX2 cells expressing human PXR and luciferase reporter gene
# T2 sequence (O75469 whole entry): T1 sequence (O75469 whole entry)
# [31] = AUC (0 to infinity) in Cynomolgus monkey at 1 mg/kg,iv and measured after 72 hrs by LC/MS/MS analysis; format: ADME, organism-based, Macaca fascicularis; set-up: dose 1 mg/kg, time 72 hrs, route iv; conditions: in vivo
# [32] = Half life in Sinclair Lab dog at 1 mg/kg,iv and measured after 72 hrs by LC/MS/MS analysis; format: ADME, organism-based, Canis lupus familiaris; conditions: in vivo
# Cytochrome P450 3A4 = Cytochrome P450 3A4 (Homo sapiens, UniProt P08684); assay: Inhibition of CYP3A4 in human liver microsomes incubated for 10 mins in presence of NADPH by LC/MS/MS analysis; format: ADME, Microsome
# [33] = Cytotoxicity against human Huh-7 cells transfected with HCV subgenomic replicon for NS5B polymerase assessed as reduction in cell viability; format: toxicity, cell-based
# Cytochrome P450 2C9 = Cytochrome P450 2C9 (Homo sapiens, UniProt P11712); assay: Inhibition of CYP2C9 in human liver microsomes incubated for 10 mins in presence of NADPH by LC/MS/MS analysis; format: ADME, Microsome
# [34] = Volume of distribution at steady state in Sinclair Lab dog at 1 mg/kg,iv and measured after 72 hrs by LC/MS/MS analysis; format: ADME, organism-based, Canis lupus familiaris; conditions: in vivo, read-out: Vdss
# [35] = Unbound AUC (0 to infinity) in Sprague-Dawley rat at 1 mg/kg,iv and measured after 72 hrs by LC/MS/MS analysis; format: ADME, organism-based; conditions: in vivo
# Cytochrome P450 3A4, sequence (P08684 whole entry): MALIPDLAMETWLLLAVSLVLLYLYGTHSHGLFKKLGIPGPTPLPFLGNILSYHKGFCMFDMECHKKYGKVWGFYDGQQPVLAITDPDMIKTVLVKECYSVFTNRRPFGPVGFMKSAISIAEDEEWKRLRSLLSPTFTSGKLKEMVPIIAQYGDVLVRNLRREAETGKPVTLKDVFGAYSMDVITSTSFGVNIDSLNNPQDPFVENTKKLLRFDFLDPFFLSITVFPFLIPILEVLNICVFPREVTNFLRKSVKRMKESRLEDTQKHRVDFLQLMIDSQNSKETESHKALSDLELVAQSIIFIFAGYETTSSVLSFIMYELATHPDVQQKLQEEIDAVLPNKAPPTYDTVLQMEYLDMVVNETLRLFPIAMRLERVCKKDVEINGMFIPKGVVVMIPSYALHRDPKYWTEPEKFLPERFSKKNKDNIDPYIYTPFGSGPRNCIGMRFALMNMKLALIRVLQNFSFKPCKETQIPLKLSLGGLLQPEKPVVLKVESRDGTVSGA
# Cytochrome P450 2D6, sequence (P10635 whole entry): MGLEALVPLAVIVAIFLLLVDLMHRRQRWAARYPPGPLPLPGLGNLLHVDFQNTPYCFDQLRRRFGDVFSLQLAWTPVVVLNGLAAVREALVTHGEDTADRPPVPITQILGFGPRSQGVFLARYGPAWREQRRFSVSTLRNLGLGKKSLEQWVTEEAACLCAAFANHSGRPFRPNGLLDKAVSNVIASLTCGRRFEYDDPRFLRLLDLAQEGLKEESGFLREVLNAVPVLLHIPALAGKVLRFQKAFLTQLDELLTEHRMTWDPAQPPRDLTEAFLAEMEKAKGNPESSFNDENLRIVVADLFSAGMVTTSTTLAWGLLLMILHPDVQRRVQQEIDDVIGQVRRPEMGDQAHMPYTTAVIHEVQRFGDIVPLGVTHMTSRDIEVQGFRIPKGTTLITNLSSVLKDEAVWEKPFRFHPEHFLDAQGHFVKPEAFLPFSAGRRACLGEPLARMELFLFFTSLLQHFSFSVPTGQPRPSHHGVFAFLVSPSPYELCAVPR
# Cytochrome P450 2C9, sequence (P11712 whole entry): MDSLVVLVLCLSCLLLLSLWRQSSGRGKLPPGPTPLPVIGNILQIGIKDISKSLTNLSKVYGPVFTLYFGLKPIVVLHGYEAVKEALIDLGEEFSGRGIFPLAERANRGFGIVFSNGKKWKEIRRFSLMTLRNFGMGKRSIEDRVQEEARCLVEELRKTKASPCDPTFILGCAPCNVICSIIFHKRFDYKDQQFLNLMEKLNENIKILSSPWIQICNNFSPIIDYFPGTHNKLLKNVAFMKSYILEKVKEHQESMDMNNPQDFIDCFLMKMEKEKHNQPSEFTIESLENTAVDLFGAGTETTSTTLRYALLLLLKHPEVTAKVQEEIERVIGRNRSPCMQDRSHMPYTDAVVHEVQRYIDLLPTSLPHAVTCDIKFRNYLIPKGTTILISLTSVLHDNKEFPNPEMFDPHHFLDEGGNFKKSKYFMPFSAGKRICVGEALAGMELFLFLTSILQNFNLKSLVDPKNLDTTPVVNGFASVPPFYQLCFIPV
smiles,measurement,setting,value
CN1CCCC[C@H](N(c2cc(C#CC(C)(C)C)sc2C(=O)O)C(=O)[C@H]2CC[C@H](C)CC2)C1=O,clearance,[1],15 mL/min/kg
same,CL free,[2],2010 mL/min/kg
same,Stability,[3],Stable
same,clearance,[4],16.1 mL/min/kg
same,AUC(0-inf),[5],3820 ng·h/mL
same,CL free,[6],3350 mL/min/kg
same,fAUC,[7],4.43 ng·h/mL
same,IC50,"Hepatitis C virus [8]; Huh-7, 96 h",4 nM
same,IC90,"Hepatitis C virus [8]; Huh-7, time <= 96 hrs",12 nM
same,AUC(0-inf),[9],1480 ng·h/mL
same,Drug uptake,[10],Active
same,CL free,[11],2140 mL/min/kg
same,half-life,[12],2.91 h
same,clearance,[13],33.5 mL/min/kg
same,AUC(0-inf),[14],1450 ng·h/mL
same,Drug uptake,[15],Active
same,Cmax,[16],1040 ng/mL
same,Drug uptake,[17],Active
same,bioavailability,[18],97%
same,EC50,[19],> 30000 nM
same,fAUC,[20],10.1 ng·h/mL
same,half-life,[21],5.44 h
same,IC50,Hepatitis C virus [22],23 nM
same,Vd,[23],5.27 L/kg
same,IC50,Cytochrome P450 2D6,> 30000 nM
same,fAUC,[24],30.6 ng·h/mL
same,Drug excretion,[25],Active
same,"fraction unbound at 6 h, 1 µM",[26],0.008
same,Stability,[27],Stable
same,Drug uptake,[28],Active
same,Vd,[29],1.95 L/kg
same,half-life,[30],2.12 h
same,Emax at 24 h,PXR,10%
same,AUC(0-inf),[31],443 ng·h/mL
same,half-life,[32],1.39 h
same,IC50,Cytochrome P450 3A4,> 30000 nM
same,CC50,[33],> 20000 nM
same,IC50,Cytochrome P450 2C9,> 30000 nM
same,Vd,[34],1.59 L/kg
same,fAUC,[35],11.8 ng·h/mL
